Experimental data reported in patent publication US9315531B2, “Titanocene-gold derivatives comprising thiolato ligands” (Research Foundation of the City University of New York, priority 2014, dated 2016).

How the values were obtained:
[1] = tested on: Caki-1; experiment: Cell viability assay (XTT), Caki-1; assay type: cell-based, human; details: 72 h incubation
Text: (§1) Cell Culture: Human renal cell carcinoma lines A498, Caki-1 and UO31, as well as the human prostate carcinoma cell lines DU145 and PC3 were newly obtained for these studies from the American Type Culture Collection (ATCC) (Manassas, Va., USA) and cultured in Roswell Park Memorial Institute (RPMI-1640) (Mediatech Inc., Manassas, Va.) media containing 10% fetal bovine serum (FBS, Life Technologies, Grand Island, N.Y.), 1% Minimum Essential Media (MEM) nonessential amino acids (NEAA, Mediatech) and 1% penicillin-streptomycin (PenStrep, Mediatech). HEK-293T cells were newly purchased from ATCC (Manassas, Va., USA) and maintained in Dulbecco's modified Eagle's medium (DMEM) (Mediatech) supplemented with 10% FBS, 1% NEAA and 1% PenStrep. Normal human renal epithelial cells (RPTC) were purchased from Lifeline Cell Technology (Lifeline Cell Technology, Frederick, Md., USA) and maintained in Lifeline's Renal Life Medium from Lifeline Cell Technology supplemented with 2.4 mM L-glutamine, 5 μg/mL rh insulin, 1.0 nM epinephrine, 10 nM triiodothyronine, 0.1 μg/mL hydrocortisone hemisuccinate, 10 ng/mL rhEGF, 0.50% FBS, 5 μg/mL transferrin PS. All cells were cultured at 37° C. and 5% CO2 in a humidified incubator.
The optical absorbance of each well in a 96-well plate was quantified using BioTek ELx808 absorbance microplate reader (BioTek Winooski, Vt.) set at 450 nm wavelength. The percentage of surviving cells was calculated from the ratio of absorbance of treated to untreated cells.

[2] = tested on: MAPKAPK3; experiment: Protein kinase expression in Caki-1 whole cell lysates (Western blot), MAPKAPK3; assay type: cell-based, human; details: Caki-1, by 12 hours post-treatment
Protocol: The Caki-1 cells were then lysed and a Western blot analysis was performed with anti-MAPKAPK-3 antibody. Blots were probed with anti-β-Actin antibody as a control for protein loading.
Cell lysis and immunoblotting: Caki-1 cells were seeded into 10-cm dishes at a density of 2.2×10^6 and incubated for 24 hours. […] After microcentrifuging for 5 minutes at 4° C., pellets were treated with ice-cold lysis buffer with cell extraction buffer (BioSource, Camarillo, Calif.) containing 0.1% protease inhibitors and 1% phosphatase inhibitors cocktail (Fisher Scientific, Pittsburgh, Pa.) for 10 minutes, then sonicated for 10 seconds three times, and placed on ice. The lysed cells were centrifuged at 10,000×g at 4° C. for 10 minutes to remove the pellets representing the insoluble cell fraction.
The protein concentration was determined with BCA protein dye reagent (Pierce, Fisher Scientific Pittsburgh, Pa.). […]

[3] = tested on: thioredoxin reductase
Protocol: After 5, 12 or 24 hours of treatment incubation cells were washed three times in PBS, and lysed by douncing using scrapers and sheer force though syringe with a 34 gauge needle in assay buffer (Abeam Thioredoxin Reductase Assay kit, ab83463) added to 1 mM protease inhibitor cocktail (Abeam, ab65621). The lysates were centrifuged at 10,000×g for 15 minutes at 4° C. to isolate insoluble material. The total protein concentrations of soluble lysates were measured using the BCA Protein Assay (Life Technologies). The soluble lysates were incubated for 20 minutes in assay buffer with a proprietary thioredoxin reductase specific inhibitor before adding a specific substrate, DTNB (5, 5′-dithiobis(2-nitrobenzoic) acid), and measuring activity at 1 minute intervals for 30 minutes using the BioTek fluorescence microplate reader (BioTek U.S., Winooski, Vt.) set at =412 nm. Lysates were tested in duplicate. TrxR activity was calculated based on the linear amount of TNB produced per minute per mg of total protein and corrected for background activity from enzymes other than TrxR in the lysates.

[4] = target: T1, isolated TrRx (Homo sapiens, UniProt Q16881); details: isolated enzyme; read-out: concentration inhibiting 50% of the enzymatic activity of isolated TrRx; cited from earlier work
T1 sequence (Q16881 151-649 limits assumed): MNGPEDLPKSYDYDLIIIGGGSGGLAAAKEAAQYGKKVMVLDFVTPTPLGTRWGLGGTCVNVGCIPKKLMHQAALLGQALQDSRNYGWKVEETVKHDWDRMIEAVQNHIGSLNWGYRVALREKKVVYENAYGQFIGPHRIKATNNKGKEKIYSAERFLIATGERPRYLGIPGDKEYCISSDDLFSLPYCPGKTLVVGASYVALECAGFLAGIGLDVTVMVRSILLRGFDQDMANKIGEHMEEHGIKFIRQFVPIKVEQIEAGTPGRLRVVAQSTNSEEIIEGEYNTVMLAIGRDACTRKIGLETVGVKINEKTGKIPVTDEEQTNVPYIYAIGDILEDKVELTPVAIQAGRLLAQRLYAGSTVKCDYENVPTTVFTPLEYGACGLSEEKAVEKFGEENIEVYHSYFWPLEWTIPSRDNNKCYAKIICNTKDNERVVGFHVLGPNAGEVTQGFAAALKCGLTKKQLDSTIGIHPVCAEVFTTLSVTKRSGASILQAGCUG

[5] = tested on: TrRx in human breast MCF-7 cancer cells; details: 4 μM; cited from earlier work
[6] = tested on: TrRx in human ovarian A2780 cancer cells; details: 10 μM; cited from earlier work
[7] = tested on: HEK-293T; experiment: Cell viability assay (XTT), HEK-293T; assay type: cell-based; details: 72 h incubation; non-tumorigenic human embryonic kidney cell line
Protocol: HEK-293T cells were newly purchased from ATCC (Manassas, Va., USA) and maintained in Dulbecco's modified Eagle's medium (DMEM) (Mediatech) supplemented with 10% FBS, 1% NEAA and 1% PenStrep. […] All cells were cultured at 37° C. and 5% CO2 in a humidified incubator.

[8] = tested on: plasmid pBR322 DNA; experiment: Electrophoresis mobility shift assay; assay type: binding; details: metal/DNAbp ratios 0.25-2.0, 37° C., 20 h
Protocol: Agarose gel electrophoresis assays were performed whereby decreased electrophoretic mobility of both forms were taken as evidence of metal-DNA binding.
Mobility Shift Assay: 10 μL aliquots of pBR322 plasmid DNA (20 μg/mL) in buffer (5 mM Tris/HCl, 50 mM NaClO4, pH=7.39) were incubated with different concentrations of the compounds (2, 3, 4, 5), and titanocene dichloride) (in the range 0.25 and 4.0 metal complex:DNA bp) at 37° C. for 20 h in the dark. Samples of free DNA and cisplatin-DNA were prepared as controls. After the incubation period, the samples were loaded onto the 1% agarose gel. The samples were separated by electrophoresis for 1.5 h at 80 V in Tris-acetate/EDTA buffer (TAE). Afterwards, the gel was stained for 30 min with a solution of GelRed nucleic acid stain.

[9] = tested on: RPTC; experiment: Cell viability assay (XTT), RPTC; assay type: cell-based; details: 72 h incubation; human renal proximal tubular cells
Text: as §1
Cell Viability Assay: Cells were seeded at a concentration of 5000 cells/90 μl per well of either RPMI or DMEM without phenol red and without antibiotics, supplemented with 10% FBS and 2 mM L-glutamine into tissue culture grade 96-well flat bottom microplates (BioLite Microwell Plate, Fisher Scientific, Waltham, Mass., USA) and grown for 24 h at 37° C. in a humidified incubator. Afterwards, the intermediate dilutions of the compounds were added to the wells (10 μL) to obtain a final concentration ranging from 0.1 to 200 μM, and the cells were incubated for 24 h or 72 h. […] The optical absorbance of each well in a 96-well plate was quantified using BioTek ELx808 absorbance microplate reader (BioTek Winooski, Vt.) set at 450 nm wavelength. The percentage of surviving cells was calculated from the ratio of absorbance of treated to untreated cells.

[10] = Stability in solution (DMSO-d6, CDCl3, DMSO/PBS); assay type: physicochemical
Text: (§2) Both compound 2 and compound 3 were less acidic than titanocene dichloride and were soluble in DMSO/water, DMSO/PBS and DMSO/media (1:99) mixtures at micromolar concentrations. These compounds were unusually stable methyl-containing titanocene moieties that were stable as solids at room temperature, while exposed to air in CDCl3 solution for at least five days.

[11] = Solubility in DMSO/aqueous mixtures; assay type: physicochemical; details: at micromolar concentrations
Text: as §2

| Molecule | IC50 [1] [µM] | IC50 [7] [µM] | effect on electrophoretic mobility of plasmid DNA forms [8] | IC50 [9] [µM] | also measured |
| --- | --- | --- | --- | --- | --- |
| CC(=O)OC[C@H]1O[C@@H]([S-])[C@H](OC(C)=O)[C@@H](OC(C)=O)[C@@H]1OC(C)=O.CCP(CC)CC.[Au+] [Auranofin] | 3.08 ± 0.13 | – | – | – | expression of MAPKAPK3 [2]: failed to down-regulate; inhibition of thioredoxin reductase activity ([3]; Caki-1 cells, 5 μM, five hour incubation): 74.1%; IC50 ([3]; read-out: IC50 thioredoxin reductase in Caki-1 cells, after twelve hours): 0.61 µM; IC50 [4]: 0.02 µM; inhibition of total TrRx activity in MCF-7 cells [5]: 18%; inhibition of total TrRx activity in A2780 cells [6]: 30% |
| N.N.[Cl][Pt][Cl] [Cisplatin, reference compound] | 29 ± 4.11 | 3.27 ± 0.13 | decreased mobility of the CCC form and increased mobility of the OC form | – | – |
| COc1ccc(C[C]2([Ti+2][C]3(Cc4ccc(OC)cc4)C=CC=C3)C=CC=C2)cc1.[Cl-].[Cl-] [Titanocene Y, reference compound] | 29.4 ± 4.18 | > 200 | – | – | – |
| [Cl-].[Cl-].[Ti+4].c1cc[cH-]c1.c1cc[cH-]c1 [[(π-C5H5)2TiCl2], reference compound] | > 200 | > 200 | – | – | – |
| [(η-C5H5)2TiMe(μ-mba)Au(MPPF)] [Compound 3] | 4.11 ± 0.64 | 3.09 ± 0.003 | did not affect the mobility | 3.76 ± 0.21 | half-life in DMSO-d6 ([10]; DMSO-d6): thirty-two; half-life fold larger than corresponding compound 6 / compound 7 ([10]; DMSO-d6, same solvent): sixty-four; UV-vis spectra over time ([10]; micromolar concentration in 1:99 DMSO/PBS, 23 h, physiological pH): did not change over time; solubility in DMSO/water, DMSO/PBS and DMSO/media (1:99) mixtures [11]: soluble |
| [Au(Hmba)(MPPF)] [Precursor 5] | 3.6 ± 0.342 | 3 ± 0.07 | did not affect the mobility | 3.78 ± 0.13 | – |
